Results on three compounds are retold here after patent US20160213742A1, “COMPOSITIONS AND METHODS FOR THE TREATMENT OF FUNGAL INFECTIONS” (priority 2013, published 2016).

Common to all, as to type: cell-based
The subject of experiment [1] is C. albicans ATCC 90028. In words: microbe, parasite or virus in culture. The gist of the method:
(§1)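 Aspergillus MEC and yeast MIC determined by 2-fold broth dilution in RPMI pH 7.0; plates incubated 35° C. until growth wells confluent (~24-48 hr), then read from below for growth inhibition or hyphal morphology change.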

Experiment [2] relates to C. glabrata ATCC 90030. In words: microbe, parasite or virus in culture. An outline of the steps:
as §1

The test system of experiment [3] is C. krusei ATCC 14243. In words: microbe, parasite or virus in culture. An outline of the steps:
as §1

Experiment [4] deals with C. parapsilosis ATCC 22019. In words: microbe, parasite or virus in culture. The gist of the method:
as §1

Experiment [5] concerns human neutrophils. In words: Microfluidic Neutrophil Chemotaxis assay. The note with it: for neutrophil (NF) migration counts (FIG. 1): 4 hour timepoint, in the presence of Aspergillus fumigatus, Compound 1, Compound 11, caspofungin acetate 10 nM, fMLP 100 nM, relative to A. fumigatus alone. The source says:
Two layers of photoresist (SU8; […] The wafer with patterned photoresist was used as a mold to produce polydimethylsiloxane (PDMS) (Fisher Scientific) devices, which were then bonded to the base of glass-bottom 12- or 24-well plates, using an oxygen plasma machine (Nordson-March). De-identified, fresh human blood samples from healthy volunteers, aged 18 years and older, who were not receiving immunosuppressants, were purchased from Research Blood Components, LLC. Peripheral blood was drawn in tubes containing a final concentration of 5 mM EDTA (Vacutainer; Becton Dickinson) and processed within 2 h of blood collection. Using a sterile technique, neutrophils were isolated from whole blood using HetaSep followed by the EasySep Human Neutrophil Enrichment Kit (STEMCELL Technologies) following the manufacturer's protocol. The purity of neutrophils was assessed to be >98% using the Sysmex KX-21N Hematology Analyzer (Sysmex America, Inc.). White blood cells were isolated using Hetasep followed by a 5 min spin down and wash with 1×PBS. White blood cells were stained with Hoechst (32.4 μM) (Sigma) following the manufacture's protocols. The final aliquots of white blood cells were resuspended in RPMI plus 10% fetal bovine serum (FBS−stock 50 mL FBS/450 mL RPMI) (Sigma-Aldrich) at a concentration of 20,000 cells/2 μL and kept at 37° C. Cells were then immediately introduced into the microfluidic device for the chemotaxis and Aspergillus fumigatus killing assay. All experiments were repeated at least three times with neutrophils or white blood cells from three different healthy donors. Immediately after bonding to the well plate, donut-shaped devices were filled with Aspergillus fumigatus conidia at a concentration of 10^6 cells/mL with or without either Compound 1 or Compound 11 [10 nM], caspofungin acetate [10 nM] and/or a solution of the chemoattractant N-formyl-methionyl-leucyl-phenylalanine (fMLP) [100 nM](Sigma-Aldrich, St. Louis, Mo.). The device was then placed in a vacuum for 15 min. The solution filled all of the FCCs as the air was displaced. The devices were then vigorously washed five times with 1×PBS to remove any residual Aspergillus fumigatus conidia, drug or chemoattractant that was outside of the FCCs. The device was then submerged in 0.5 mL of cell media. Neutrophils or white blood cells (20,000 cells/2 μL) were then pipetted into the cell loading chamber (CLC) using a gel-loading pipette tip. […] Image analysis of cell migration counts and fungi growth was analyzed by hand using Image J software. Neutrophil counts per chamber were counted every 15 min for the first 2 hours of the experiment and then every hour for the remaining 16 hours. Percentage of conidia that converted to hyphal growth was measured by counting conidia loaded per chamber before neutrophils or WBCs were loaded into the chamber and counting numbers of these conidia that grew hyphae by 18 hours. Fungal growth velocity was calculated using Image J. The 16 chambers in each device (n=3) were analyzed for at least three different healthy donors.

Converted amounts (≈) assume the structure as drawn.

As for `CC[C@H](C)C[C@H](C)CCCCCCCCC(=O)N[C@H]1C[C@@H](O)[C@@H](NCCN)NC(=O)[C@@H]2[C@@H](O)CCN2C(=O)[C@H]([C@H](O)CCNC(=O)[C@H](Cc2ccccc2)NC(=O)[C@H](CC(C)C)NC(=O)[C@H](CCSC)NC=O)NC(=O)[C@H]([C@H](O)[C@@H](O)c2ccc(O)cc2)NC(=O)[C@@H]2C[C@@H](O)CN2C(=O)[C@H]([C@@H](C)O)NC1=O` [Compound 1], the MIC in experiment [1] (ATCC 90028, pH 7) came out at 2 µg/mL (≈ 1.32 µM); in experiment [2] (ATCC 90030, pH 7), 4 µg/mL (≈ 2.64 µM); in experiment [3] (ATCC 14243, pH 7), 8 µg/mL (≈ 5.29 µM); in experiment [4] (ATCC 22019, pH 7), 16 µg/mL (≈ 10.6 µM). The “neutrophil (NF) migration counts (FIG. 1)” value (shortened to “neutrophil … (FIG. 1)”) in experiment [5] was “increased NF migration”.

For the compound `CC[C@H](C)C[C@H](C)CCCCCCCCC(=O)N[C@H]1C[C@@H](O)[C@@H](OCCN)NC(=O)[C@@H]2[C@@H](O)CCN2C(=O)[C@H]([C@H](O)CCNC(=O)[C@H](Cc2ccccc2)NC(=O)[C@H](CC(C)C)NC(=O)[C@H](CCSC)NC=O)NC(=O)[C@H]([C@H](O)[C@@H](O)c2ccc(O)cc2)NC(=O)[C@@H]2C[C@@H](O)CN2C(=O)[C@H]([C@@H](C)O)NC1=O` [Compound 11], the MIC was determined as 2 µg/mL (≈ 1.32 µM) in experiment [1] (ATCC 90028, pH 7); 8 µg/mL (≈ 5.28 µM) in experiment [2] (ATCC 90030, pH 7); 16 µg/mL (≈ 10.6 µM) in experiment [3] (ATCC 14243, pH 7); 32 µg/mL (≈ 21.1 µM) in experiment [4] (ATCC 22019, pH 7). In addition, the “neutrophil … (FIG. 1)” value in experiment [5] is listed as “increased NF migration”. Also, in experiment [5] (with A. fumigatus, three healthy blood donors, t=0, 8, and 16 hours), the “timecourse of neutrophil (PMNs) migration in FCCs (FIG. 4)” value is given as “migration of PMNs”.

Turning to “caspofungin acetate [reference compound]”, the MIC was 0.03 to 0.12 µg/mL in experiment [1] (C. albicans ATCC 90028, RPMI pH 7.0, 35° C., 24-48 hr); 0.06 to 0.25 µg/mL in experiment [2] (C. glabrata ATCC 90030, RPMI pH 7.0, 35° C., 24-48 hr); 0.5 to 1 µg/mL in experiment [3] (C. krusei ATCC 14243, RPMI pH 7.0, 35° C., 24-48 hr); 0.5 to 1 µg/mL in experiment [4] (C. parapsilosis ATCC 22019, RPMI pH 7.0, 35° C., 24-48 hr). In addition, the “neutrophil … (FIG. 1)” value in experiment [5] is reported as “did not give increased NF migration”.
